We go through 45 compounds from ChEMBL document CHEMBL4359828, “Back to the future: Advances in development of broad-spectrum capsid-binding inhibitors of enteroviruses” (Eur J Med Chem, 2019).

Assay [1] concerns Poliovirus 2. Put plainly: Antiviral activity against Human poliovirus 2. Format: functional, organism-based. The following applies: Enterovirus C.
Another assay relates to rhinovirus A2. The experiment in a line: Antiviral activity against Human rhinovirus A2. It counts as functional, organism-based. The following applies: Rhinovirus A.
The test system of the next assay is rhinovirus B14. The experiment in a line: Antiviral activity against Human rhinovirus B14. Format: functional, organism-based. The following applies: Rhinovirus B.
A further assay deals with Coxsackievirus B3. Put plainly: Antiviral activity against Coxsackievirus B3. It counts as functional, organism-based. Particulars: Enterovirus B.
Another assay deals with rhinovirus B5. Put plainly: Antiviral activity against Human rhinovirus B5. Format: functional, organism-based. The following applies: Rhinovirus B.
A short description of assay [2]: Antiviral activity against Human rhinovirus B3. Format: functional.
A short description of assay [3]: Antiviral activity against Human rhinovirus A8. It counts as functional.
Assay [4] can be described thus: Antiviral activity against Human rhinovirus B42. Format: functional.
A short description of assay [5]: Antiviral activity against Human rhinovirus B48. Format: functional.
For assay [6], the system named is Human rhinovirus sp. Put plainly: Antiviral activity against Human rhinovirus clinical isolates. It counts as functional, organism-based.
Assay [7] deals with Human rhinovirus sp. The experiment in a line: Antiviral activity against Human rhinovirus clinical isolates relative to control. It counts as functional.
Assay [8] relates to Poliovirus 2. Put plainly: Antiviral activity against Human poliovirus 2 relative to control. It counts as functional.
The test system of assay [9] is Enterovirus C. The experiment in a line: Antiviral activity against Poliovirus assessed as reduction in virus induced cytopathic effect. It counts as functional, organism-based. A general note: Protection from cytopathic effect is a common read-out in antiviral testing.
The test system of assay [10] is Enterovirus C. The experiment in a line: Antiviral activity against Poliovirus assessed as reduction in virus induced cytopathic effect relative to control. It counts as functional.
Assay [11] has as its system Enterovirus C. The experiment in a line: Antiviral activity against Poliovirus. It counts as functional, organism-based.
In assay [12] the test system is Enterovirus. The experiment in a line: Antiviral activity against Rhinovirus. It counts as functional, organism-based.
For assay [13], the system named is Enterovirus. Put plainly: Antiviral activity against Rhinovirus at 32 uM relative to control. It counts as functional.
Assay [14] deals with Poliovirus 2. The experiment in a line: Antiviral activity against Human poliovirus 2 infected in mouse. Format: functional, organism-based. Particulars: Enterovirus C.
The nature of assay [15]: Antiviral activity against Echovirus-3. It counts as functional, Echovirus E3.
Another assay relates to Echovirus E11. The experiment in a line: Antiviral activity against Echovirus-11. It counts as functional, organism-based. Particulars: Enterovirus B.
Assay [16] relates to Enterovirus A71. The experiment in a line: Antiviral activity against Enterovirus A71 genotype A. Format: functional, organism-based.
A further assay has as its system Coxsackievirus A9. Put plainly: Antiviral activity against Coxsackievirus A9. It counts as functional, organism-based. The following applies: Enterovirus B.
The test system of another assay is Coxsackievirus A24. The experiment in a line: Antiviral activity against Coxsackievirus A24. It counts as functional, organism-based. Particulars: Enterovirus C.
For another assay, the system named is Echovirus E9. Put plainly: Antiviral activity against Echovirus 9. It counts as functional, organism-based. The following applies: Enterovirus B.
The next assay concerns enterovirus D68. Put plainly: Antiviral activity against Enterovirus D68. Particulars: Enterovirus D. It counts as functional, organism-based.
Assay [17] relates to Enterovirus A71. Put plainly: Antiviral activity against Enterovirus A71 genotype B. It counts as functional, organism-based. Particulars: Enterovirus A.
In assay [18] the test system is Enterovirus A71. The experiment in a line: Antiviral activity against Enterovirus A71 genotype C. The following applies: Enterovirus A. It counts as functional, organism-based.
The test system of assay [19] is Enterovirus A71. The experiment in a line: Antiviral activity against Enterovirus A71. Format: functional, organism-based. The following applies: Enterovirus A.
For assay [20], the system named is Enterovirus. Put plainly: Antiviral activity against Enterovirus clinical isolate. It counts as functional, organism-based.
A further assay has as its system HeLa. The experiment in a line: Cytotoxicity against human HeLa cells after 3 days by MTT assay. Format: functional, cell-based. The following applies: 72 h. On the technique in general: Formazan colour is commonly taken as a measure of viable cells.

In the case of `Cc1cc(CCCCCCCOc2ccc(C3=NC(CO)CO3)cc2)on1` (centres undefined), the half-inhibitory concentration (IC50) in the assay with Poliovirus 2 [1] and with rhinovirus A2 was 900 to 2600 nM each time.

In turn, `Cc1cc(CCCCCOc2c(Cl)cc(-c3ccc(C)s3)cc2Cl)on1` had an IC50 in the assay on rhinovirus B14 of 5200 nM.

In the case of `Cc1cc(CCCOc2c(C)cc(-c3cccc(C(F)(F)F)c3)cc2C)on1`, the IC50 stood at 9 nM in the assay with rhinovirus A2 and 1340 nM with Coxsackievirus B3.

Take `Cc1cc(CCCCCOc2c(Cl)cc(-c3ncco3)cc2Cl)on1`: half-maximal inhibition with rhinovirus B14 (IC50) was put at 1830 nM.

Regarding `Cc1cc(CCCCCOc2c(Cl)cc(-c3ccc(C)o3)cc2Cl)on1`, the IC50 with rhinovirus B14 turned out to be 2640 nM.

The compound `Cc1cc(CCCCCOc2c(Cl)cc(-c3ccc(Cl)s3)cc2Cl)on1` showed an IC50 in the assay on rhinovirus B14 of 5300 nM. Against the preceding compound, the IC50 is about 2-fold higher.

As to `Cc1cc(CCCCCCCOc2ccc(C3=NC(C)(C)CO3)cc2)on1`, the IC50 in the assay with Poliovirus 2 [1] was 100 to 120 nM; in the assay on rhinovirus A2, 40 to 60 nM.

Take `Cc1cc(CCCOc2c(C)cc(-c3ccc(Cl)cc3)cc2C)on1`: the values for the IC50 (in the assay on rhinovirus B5; in [2]) were 110 nM and 120 nM, respectively.

Take `Cc1ccc(-c2cc(C)c(OCCCc3cc(C)no3)c(C)c2)cc1`: the results for the half-inhibitory concentration (IC50) (with rhinovirus B5; in [2]) were 110 nM and 120 nM, respectively.

As to `Cc1cc(CCCOc2c(C)cc(-c3cc(C(F)(F)F)cc(C(F)(F)F)c3)cc2C)on1`, the IC50 in the assay with rhinovirus A2 is 9 nM; with Coxsackievirus B3, 1340 nM.

As for `Cc1cc(CCCOc2c(C)cc(-c3cccc(O)c3)cc2C)on1`, the IC50 (in the assay with rhinovirus B5; in assay [2]) was 440 nM in each case.

Consider `Cc1cc(CCCCCOc2c(Cl)cc(-c3ccc(Cl)o3)cc2Cl)on1`, for which, in the assay on rhinovirus B14, the IC50 was determined as 2000 nM.

For `Cc1cc(CCCOc2c(C)cc(-c3cccc4ccccc34)cc2C)on1`, the IC50 with rhinovirus A2 was determined as 9 nM; in the assay on Coxsackievirus B3, 1340 nM.

Take `Cc1cc(CCCCCCCOc2ccc(C3=NC(C)CO3)cc2)on1` (centres undefined): the IC50 fell in the range of 100 to 120 nM in the assay with Poliovirus 2 [1] and 40 to 60 nM in the assay on rhinovirus A2.

For `Cc1cc(CCCCCOc2c(Cl)cc(-c3ccco3)cc2Cl)on1`, in the assay with rhinovirus B14, the IC50 worked out at 710 nM.

Consider `Nc1nc(-c2ccccc2)nc2[nH]nc(Nc3ccc(C(F)(F)F)cc3)c12`, for which the IC50 (with rhinovirus A2; with rhinovirus B5; in the assay with Coxsackievirus B3; in assay [3]; in assay [4]; in assay [5]) was 40 to 640 nM throughout.

As to `COc1ccc(OCc2ccc(COc3c(Cl)cccc3Cl)cc2)c(Cl)c1`, the EC50 with Poliovirus 2 [1] is 900 nM; with Human rhinovirus sp. [6], 900 nM; with Enterovirus C [9], 3 to 126 nM; with Enterovirus C [11], under 76 nM. Besides, the Activity in the assay with Human rhinovirus sp. [7] and in the assay on Poliovirus 2 [8] was 80% each time. Besides, the “inhibition (INH)” value in the assay on Enterovirus C [10] is 90%.

For `COc1ccc(OCCCCCCn2ccnc2)c(Cl)c1`, in the assay on Enterovirus [12] (Enterovirus), the half-maximal effective concentration (EC50) was in the range of 10200 to 29100 nM.

Regarding `Cc1cc(CCCOc2c(C)cc(-c3ccc(O)cc3)cc2C)on1`, the half-maximal inhibitory concentration (IC50) (with rhinovirus B5; in [2]) was 770 nM throughout.

With `Cc1cc(CCCCCOc2c(Cl)cc(-c3nnn(C)n3)cc2Cl)on1`, in the assay with rhinovirus B14, half-maximal inhibition (IC50) was put at 1200 nM.

`COc1ccc(N2CCN(c3cccc(C)c3)CC2)nn1`: the inhibition at 32 µM in the assay on Enterovirus [13] worked out at 80%.

In the case of `Cc1cc(CCCOc2c(C)cc(-c3ccc(C(F)(F)F)cc3)cc2C)on1`, the figures for the IC50 in the assay on rhinovirus A2 and in the assay with Coxsackievirus B3 were 9 nM and 1340 nM, respectively.

As to `Cc1cc(CCCCCOc2c(Cl)cc(-c3cccnc3)cc2Cl)on1`, half-maximal inhibition in the assay on rhinovirus B14 (IC50) was put at 970 nM.

With `COc1ccc(OCCCCCCCc2cc(C)no2)c(Cl)c1`, the IC50 with Poliovirus 2 [14] was 40 to 150 nM; in assay [15] it was 40 to 150 nM; in the assay with Echovirus E11, 40 to 150 nM; in the assay with Enterovirus [12] (Enterovirus), 10 to 5800 nM.

`O=C1N(CCCCCOc2ccc(Br)cc2)CCN1c1ccncc1`: the IC50 in the assay on Enterovirus A71 [16] was 300 to 1600 nM; in the assay on Coxsackievirus A9, 470 to 550 nM; in the assay with Coxsackievirus A24, 470 to 550 nM; in the assay with Echovirus E9 it was 2600 nM; in the assay with enterovirus D68, 2130 nM; in the assay with Enterovirus A71 [17] it was 300 to 1600 nM. In the assay on Enterovirus A71 [18], this compound had an IC50 of 300 to 1600 nM.

Regarding `Cc1cc(CCCOc2c(C)cc(-c3ccc(-c4ccccc4)cc3)cc2C)on1`, the IC50 with rhinovirus A2 was 9 nM; with Coxsackievirus B3 it was 1340 nM.

In the case of `Cc1cc(CCCOc2c(C)cc(-c3ccc([N+](=O)[O-])cc3)cc2C)on1`, the IC50 (in the assay on rhinovirus B5; in assay [2]) was 760 nM in each case.

In the case of `CCc1nc(-c2ccc(OCCC(C)CCN3CCN(c4ccncc4)C3=O)cc2)no1` (centres undefined), the EC50 in the assay on Enterovirus A71 [19] was 0.5 nM.

Turning to `Cc1cc(CCCCCOc2c(Cl)cc(-c3cccs3)cc2Cl)on1`, the IC50 in the assay with rhinovirus B14 stood at 7320 nM.

Take `Cc1cc(CCCCCOc2ccc(C3=NCCO3)cc2)on1`: the IC50 is 3 nM with Poliovirus 2 [1] and 100 to 120 nM in the assay with rhinovirus A2.

As to `Cc1cc(CCCOc2c(C)cc(-c3ccccc3C)cc2C)on1`, the results for the IC50 with rhinovirus A2 and in the assay on Coxsackievirus B3 were 9 nM and 1340 nM, respectively.

With `Cc1cc(CCCCCCOc2ccc(C3=NCCO3)cc2)on1`, the IC50 in the assay with Poliovirus 2 [1] was 8 nM; in the assay with rhinovirus A2, 100 to 120 nM.

Take `COc1ccc(OCc2ccc(COc3ccc(OC)cc3Cl)cc2)c(Cl)c1`: the EC50 in the assay on Enterovirus [12] (Enterovirus) was 10 nM.

Consider `Cc1cc(CCCOc2c(C)cc(-c3cccc(F)c3)cc2C)on1`, for which the IC50 in the assay on rhinovirus A2 was 9 nM; in the assay on Coxsackievirus B3 it was 1340 nM.

Regarding `Cc1cc(CCCOc2c(C)cc(-c3ccc(F)cc3)cc2C)on1`, the IC50 in the assay on rhinovirus A2 is 9 nM; with rhinovirus B5 it was 110 nM; in [2], 120 nM; in the assay with Coxsackievirus B3 it was 1340 nM.

Take `Cc1cc(CCCCCOc2c(Cl)cc(-c3cnco3)cc2Cl)on1`: the IC50 with rhinovirus B14 worked out at 12800 nM.

As to `COc1cc(-c2cc(C)c(OCCCc3cc(C)no3)c(C)c2)cc(OC)c1OC`, the IC50 with rhinovirus A2 was determined as 9 nM; in the assay on Coxsackievirus B3, 1340 nM.

On to `Cc1cc(CCCOc2c(C)cc(-c3ccccc3F)cc2C)on1`, for which the IC50 was 110 nM in the assay with rhinovirus B5 and 120 nM in assay [2].

As to `Cc1cc(CCCOc2c(C)cc(-c3noc(C(F)(F)F)n3)cc2C)on1` [PLECONARIL], the IC50 in the assay on Enterovirus [20] was at most 30 nM; in the assay on HeLa, at most 180 nM.

On to `Cc1cc(CCCOc2c(C)cc(-c3cccc([N+](=O)[O-])c3)cc2C)on1`, for which the IC50 (with rhinovirus B5; in assay [2]) was 350 nM each time.

Consider `Cc1nc(-c2ccc(OCCC(C)CCN3CCN(c4ccncc4)C3=O)cc2)no1` (centres undefined), for which, in the assay on Enterovirus A71 [19], it took 0.9 nM to reach a half-maximal effect (EC50).

Regarding `Cc1cc(CCCCCCCOc2ccc(C3=NCC(CO)O3)cc2)on1` (centres undefined), the IC50 with Poliovirus 2 [1] and with rhinovirus A2 was 900 to 2600 nM in each case.

Turning to `Cc1cc(CCCOc2c(C)cc(-c3ccc(C)c(C)c3)cc2C)on1`, the results for the IC50 with rhinovirus A2 and in the assay with Coxsackievirus B3 were 9 nM and 1340 nM, respectively.

For `Cc1cc(CCCCCCCOc2ccc(C3=NCCO3)cc2)on1` [DISOXARIL], the IC50 is 4 nM in the assay with Poliovirus 2 [1], 4 to 6200 nM in the assay on Enterovirus [12] and 4 nM in the assay with rhinovirus A2.

`Cc1cc(CCCOc2c(C)cc(-c3ccc(OC(F)(F)F)cc3)cc2C)on1`: the IC50 in the assay on rhinovirus A2 was found to be 9 nM; in the assay on Coxsackievirus B3 it was 1340 nM.

For orientation: IC50 means the concentration that gives 50% inhibition. A word on the EC50: it is the concentration that produces a half-maximal response. Usually inhibition stands for the share of the control response that was lost under treatment. Low readings indicate a weak effect, high ones a strong effect.
